“Also recorded” adds a separate entry of the source.
Assays:
Aβ1-42 = biological target: T1, Aβ1-42 (Homo sapiens, UniProt P05067); test: ATR-FTIR sensor drug-screening assay: synthetic Aβ1-42 captured on antibody A8978 terminated germanium, auto-induced fibrilization monitored by amide I band; format: biochemical
T1 construct: Amyloid-beta-Protein fragment 1-42; purchased Sigma-Aldrich A9810; host or cells: synthetic peptide
Description: The present invention is based on the detection of secondary structural changes induced by the potential drug by means of vibrational spectroscopy. […] Instead of a 70V (Bruker) we employed an 80V FTIR spectrometer (Bruker) to improve the signal to noise ratio of the measurements. As internal reflection element germanium crystal were chemically modified with NHS-silanes, which function as anchors for the covalent attachment of the desired antibodies. After blocking the surface with casein the surface is ready for capturing of the target protein (Tau or Aβ1-42). […] The target protein was analyzed in the presence of the potential drug and the effect was monitored by the change in the amide I band. […] Another example is the study of the second important biomarker Aβ1-42. Since the developed sensor is universal, the antibody A8978 against the epitope 13-28 of Aβ1-42 could be applied for the analysis of the potential drug berberine. To monitor a potential effect of berberine the surface was loaded with synthetic Aβ1-42.
The human Aβ-peptide was purchased from Sigma-Aldrich (A9810, Amyloid-beta-Protein fragment 1-42).
IR-measurements were performed on a Vertex 80V spectrometer (Bruker Optics GmbH, Ettlingen, Germany) with liquid nitrogen cooled mercury-cadmium-telluride (MCT) detector. Double-sided interferograms were recorded in forward-backward interferometer movement at a 80 kHz data rate with a spectral resolution of 2 cm^−1, Blackman-Harris-3-Term-apodisation, Mertz-phase correction and 4 times zero filling. Reference spectra were recorded as an average of 1000, sample spectra of 200 interferograms. Recording reference single channel spectra of the blank sensor, sensor with 2-propanol, the silanized surface, the buffers, antibody or casein coated surface in equilibrium states enabled high sensitivity difference spectroscopy based on Lambert-Beer law (E=−log(I/I0). The absorbance of the state change is the negative decadic logarithm of the intensity relation before and after the change.
The antibody A8979 (Sigma-aldrich) was employed for capturing the Aβ-peptide (Nabers et al., Anal. Chem. 88(5):2755-62 doi:10.1021/acs.analchem.5b04286 (2016)). The Aβ-peptide (Aβ1-42, synthetic, Sigma-aldrich, Taufkrichen, Germany) was monomerized by incubation with hexafluoro-2-propanol as described elsewhere (Nabers et al., J. Biophotonics 9(3):224-34 doi:10.1002/jbio.201400145 (2016)).

memory function = settings: rat models; cited from earlier work
Tau protein = test: ATR-FTIR sensor drug-screening assay: Tau protein captured from human CSF on antibody Tau-5 terminated germanium, amide I band monitored; format: biochemical; settings: Tau extracted from CSF; methylene blue 50 μM, berberine 100 μM
Description: The present invention is based on the detection of secondary structural changes induced by the potential drug by means of vibrational spectroscopy. […] Instead of a 70V (Bruker) we employed an 80V FTIR spectrometer (Bruker) to improve the signal to noise ratio of the measurements. As internal reflection element germanium crystal were chemically modified with NHS-silanes, which function as anchors for the covalent attachment of the desired antibodies. After blocking the surface with casein the surface is ready for capturing of the target protein (Tau or Aβ1-42). The Tau protein was directly extracted out of human CSF. […] The target protein was analyzed in the presence of the potential drug and the effect was monitored by the change in the amide I band. […]
IR-measurements were performed on a Vertex 80V spectrometer (Bruker Optics GmbH, Ettlingen, Germany) with liquid nitrogen cooled mercury-cadmium-telluride (MCT) detector. Double-sided interferograms were recorded in forward-backward interferometer movement at a 80 kHz data rate with a spectral resolution of 2 cm^−1, Blackman-Harris-3-Term-apodisation, Mertz-phase correction and 4 times zero filling. Reference spectra were recorded as an average of 1000, sample spectra of 200 interferograms. […]

T1 sequence (P05067 672-713 limits assumed): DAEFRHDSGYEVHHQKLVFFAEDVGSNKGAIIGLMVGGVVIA

COc1ccc2cc3[n+](cc2c1OC)CCc1cc2c(cc1-3)OCO2 [berberine, berberine chloride]
shoulder of amide I band (β-sheet enriched isoforms) of Aβ1-42 in presence of drug (Aβ1-42; 100 μM berberine): 1634 cm⁻¹ | shift of the amide I maximum of Aβ1-42 versus no drug (Aβ1-42; 100 μM berberine, 18 h): 25 cm⁻¹ | amide I maximum of Aβ1-42 in presence of drug (Aβ1-42; 100 μM berberine, 18 h total, without drug 1634 cm^−1): 1659 cm⁻¹ | effect on secondary structure distribution / fibrilization of Aβ1-42 (Aβ1-42; synthetic Aβ1-42, drug 100 μM, same conditions for both drugs): shifts the distribution mainly to α-helix; also recorded: directly decelerates the aggregation process of Aβ1-42; also recorded: decelerates the auto-induced fibrilization of Aβ1-42 | effect on memory function (memory function): positive effect on the memory function | effect on secondary structure distribution of Tau protein (Tau protein): did not change the secondary structure distribution; also recorded: no significant effect on the Tau protein

Source: patent US11592451B2, “Method for the preselection of drugs for protein misfolding diseases” (betaSENSE GmbH, priority 2016, dated 2023)
